Assay results published in EP4603105A1, “PHARMACEUTICAL COMPOSITION CONTAINING CYCLIC COMPOUND HAVING SELECTIVE KRAS INHIBITORY EFFECT AGAINST HRAS AND NRAS” (CHUGAI SEIYAKU KABUSHIKI KAISHA, priority 2022, dated 2024).
Each block holds one compound with its values, some of them ahead of it. *1 amine or outer side, *2 acyl side, *3 side chain or, on linkers, in order; H or OH if unused. Where a SMILES comes first, the peptide text is derived from it. Bridges are numbered along the chain shown (N, C = ends). [ ]: non-standard residue; d: D form. The star is where a group is joined. X25 = O=C([C@H](Cc1ccc(C(F)(F)F)cc1)N(CCC(F)(F)F)[*:1])[*:2]; X23 = O=C([C@H](Cc1ccc(C(F)(F)F)cc1)N(CC1CCCC1)[*:1])[*:2]; X38 = CC(C)CCN([C@@H](Cc1ccc(C(F)(F)F)cc1)C(=O)[*:2])[*:1]; hPhe(3-Cl-4-CF3) = N[C@@H](CCc1ccc(C(F)(F)F)c(Cl)c1)C(=O)O; X24 = CC(C)CN([C@@H](Cc1ccc(C(F)(F)F)cc1)C(=O)[*:2])[*:1]; X39 = O=C([C@H](Cc1ccc(C(F)(F)F)cc1)N(CC1CCC1)[*:1])[*:2]; X22 = C=CCCN([C@@H](Cc1ccc(C(F)(F)F)cc1)C(=O)[*:2])[*:1]; X33 = O=C([C@H](Cc1ccc(C(F)(F)F)cc1)N(CC1CC1)[*:1])[*:2]; X43 = COCCCN([C@@H](Cc1ccc(C(F)(F)F)cc1)C(=O)[*:2])[*:1]; X18 = CCCCN([C@@H](Cc1ccc(C(F)(F)F)cc1)C(=O)[*:2])[*:1]; X29 = C#CCN([C@@H](Cc1ccc(C(F)(F)F)cc1)C(=O)[*:2])[*:1]; X34 = COCCN([C@@H](Cc1ccc(C(F)(F)F)cc1)C(=O)[*:2])[*:1]; NMeGly(cPent) = CN[C@H](C(=O)O)C1CCCC1; NMeD = CN[C@@H](CC(=O)O)C(=O)O; NMeL = CN[C@@H](CC(C)C)C(=O)O; Morpholide = C1CN(*)CCO1; NMeA = CN[C@@H](C)C(=O)O; Ac5c = NC1(C(=O)O)CCCC1; Aze = O=C(O)[C@@H]1CCN1; Sar = CNCC(=O)O

Columns and labels:
HRAS wild-type protein = HRAS wild-type protein (Homo sapiens, UniProt P01112); assay: Binding to HRAS by surface plasmon resonance (SPR), KD and KD ratio to KRAS; conditions: ratio of KD for HRAS wild-type protein to KD for KRAS
Sequence of HRAS wild-type protein (P01112 whole entry): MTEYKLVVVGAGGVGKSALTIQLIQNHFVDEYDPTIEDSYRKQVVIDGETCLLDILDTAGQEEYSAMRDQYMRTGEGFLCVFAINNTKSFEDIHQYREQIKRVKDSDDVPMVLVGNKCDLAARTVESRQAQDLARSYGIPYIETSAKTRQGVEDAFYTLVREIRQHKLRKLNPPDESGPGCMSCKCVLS
In short: (§1)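 Recombinant RAS proteins bearing a biotinylated Avi tag and loaded with GDP served as the captured ligand, recaptured fresh every cycle. Binding responses were referenced to an uncoated surface and a buffer-only blank cycle. Dissociation constants were obtained by 1:1 model fitting at 30°C.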

[1] = target: GDP-bound NRAS wild-type protein (Homo sapiens, UniProt P01111); assay: Binding to NRAS by surface plasmon resonance (SPR), KD and KD ratio to KRAS; conditions: ratio of KD for GDP-bound NRAS wild-type protein to KD for KRAS
Sequence of GDP-bound NRAS wild-type protein (P01111 whole entry): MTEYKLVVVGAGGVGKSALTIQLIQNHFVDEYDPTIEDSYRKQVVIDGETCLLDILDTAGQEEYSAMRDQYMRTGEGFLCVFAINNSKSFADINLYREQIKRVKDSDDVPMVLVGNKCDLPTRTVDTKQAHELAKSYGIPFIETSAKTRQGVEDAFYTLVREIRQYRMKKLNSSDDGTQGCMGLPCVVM
In short: as §1

[2] = tested on: human lung cancer strain NCI-H441; type: cell-based
In short: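 Signal came from […] measured per well once the reagent was added. Beforehand, cells were cultured at 37°C and 5% carbon dioxide on a compound series serially diluted in dimethyl sulfoxide.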

SMILES: CCCCN1C(=O)CN(C)C(=O)CN(C)C(=O)[C@H]([C@@H](C)CC)NC(=O)[C@H](CC(C)C)N(C)C(=O)C[C@@H](C(=O)N2CCOCC2)N(C)C(=O)[C@H](C2CCCC2)N(C)C(=O)C2(CCCC2)NC(=O)[C@@H]2CCCN2C(=O)[C@H](CCc2ccc(C(F)(F)F)c(Cl)c2)NC(=O)CN(C)C(=O)[C@@H]1Cc1ccc(C(F)(F)F)cc1 [PP0120] ([NMeL]I[Sar][Sar][X18][Sar][hPhe(3-Cl-4-CF3)]P[Ac5c][NMeGly(cPent)][NMeD]-Morpholide; lactam N-11)
HRAS /KRAS (HRAS wild-type protein): C (A compound having a KD ratio of 0.1 or more and less than 3 is denoted as C)
NRAS /KRAS [1]: B (a compound having 3 or more and less than 10 is denoted as B)
IC50 [2]: 5.6 nM

SMILES: CC[C@H](C)[C@@H]1NC(=O)[C@H](CC(C)C)N(C)C(=O)C[C@@H](C(=O)N2CCOCC2)N(C)C(=O)[C@H](C2CCCC2)N(C)C(=O)C2(CCCC2)NC(=O)[C@@H]2CCCN2C(=O)[C@H](CCc2ccc(C(F)(F)F)c(Cl)c2)NC(=O)CN(C)C(=O)[C@H](Cc2ccc(C(F)(F)F)cc2)N(CC(C)C)C(=O)CN(C)C(=O)CN(C)C1=O [PP0121] ([NMeL]I[Sar][Sar][X24][Sar][hPhe(3-Cl-4-CF3)]P[Ac5c][NMeGly(cPent)][NMeD]-Morpholide; lactam N-11)
HRAS /KRAS (HRAS wild-type protein): C (A compound having a KD ratio of 0.1 or more and less than 3 is denoted as C)
NRAS /KRAS [1]: C (A compound having a KD ratio of 0.1 or more and less than 3 is denoted as C)
IC50 [2]: 29.5 nM

SMILES: CC[C@H](C)[C@@H]1NC(=O)[C@H](CC(C)C)N(C)C(=O)C[C@@H](C(=O)N2CCOCC2)N(C)C(=O)[C@H](C2CCCC2)N(C)C(=O)C2(CCCC2)NC(=O)[C@@H]2CCCN2C(=O)[C@H](CCc2ccc(C(F)(F)F)c(Cl)c2)NC(=O)CN(C)C(=O)[C@H](Cc2ccc(C(F)(F)F)cc2)N(CC2CCC2)C(=O)CN(C)C(=O)CN(C)C1=O [PP0123] ([NMeL]I[Sar][Sar][X39][Sar][hPhe(3-Cl-4-CF3)]P[Ac5c][NMeGly(cPent)][NMeD]-Morpholide; lactam N-11)
HRAS /KRAS (HRAS wild-type protein): C (A compound having a KD ratio of 0.1 or more and less than 3 is denoted as C)
NRAS /KRAS [1]: B (a compound having 3 or more and less than 10 is denoted as B)
IC50 [2]: 12.5 nM

SMILES: CC[C@H](C)[C@@H]1NC(=O)[C@H](CC(C)C)N(C)C(=O)C[C@@H](C(=O)N2CCOCC2)N(C)C(=O)[C@H](C2CCCC2)N(C)C(=O)C2(CCCC2)NC(=O)[C@@H]2CCCN2C(=O)[C@H](CCc2ccc(C(F)(F)F)c(Cl)c2)NC(=O)CN(C)C(=O)[C@H](Cc2ccc(C(F)(F)F)cc2)N(CC2CCCC2)C(=O)CN(C)C(=O)CN(C)C1=O [PP0124] ([NMeL]I[Sar][Sar][X23][Sar][hPhe(3-Cl-4-CF3)]P[Ac5c][NMeGly(cPent)][NMeD]-Morpholide; lactam N-11)
HRAS /KRAS (HRAS wild-type protein): C (A compound having a KD ratio of 0.1 or more and less than 3 is denoted as C)
NRAS /KRAS [1]: C (A compound having a KD ratio of 0.1 or more and less than 3 is denoted as C)
IC50 [2]: 48.8 nM

SMILES: CC[C@H](C)[C@@H]1NC(=O)[C@H](CC(C)C)N(C)C(=O)C[C@@H](C(=O)N2CCOCC2)N(C)C(=O)[C@H](C2CCCC2)N(C)C(=O)C2(CCCC2)NC(=O)[C@@H]2CCCN2C(=O)[C@H](CCc2ccc(C(F)(F)F)c(Cl)c2)NC(=O)CN(C)C(=O)[C@H](Cc2ccc(C(F)(F)F)cc2)N(CCC(C)C)C(=O)CN(C)C(=O)CN(C)C1=O [PP0126] ([NMeL]I[Sar][Sar][X38][Sar][hPhe(3-Cl-4-CF3)]P[Ac5c][NMeGly(cPent)][NMeD]-Morpholide; lactam N-11)
HRAS /KRAS (HRAS wild-type protein): C (A compound having a KD ratio of 0.1 or more and less than 3 is denoted as C)
NRAS /KRAS [1]: C (A compound having a KD ratio of 0.1 or more and less than 3 is denoted as C)
IC50 [2]: 9.3 nM

Further lines, with some results ahead:

IC50 [2]: 2 nM
SMILES: C=CCCN1C(=O)[C@@H]2CCN2C(=O)[C@H](C)N(C)C(=O)[C@H]([C@@H](C)CC)NC(=O)[C@H](CC(C)C)N(C)C(=O)C[C@@H](C(=O)N2CCOCC2)N(C)C(=O)[C@H](C2CCCC2)N(C)C(=O)C2(CCCC2)NC(=O)[C@@H]2CCCN2C(=O)[C@H](CCc2ccc(C(F)(F)F)c(Cl)c2)NC(=O)CN(C)C(=O)[C@@H]1Cc1ccc(C(F)(F)F)cc1 [PP0115] ([NMeL]I[NMeA][Aze][X22][Sar][hPhe(3-Cl-4-CF3)]P[Ac5c][NMeGly(cPent)][NMeD]-Morpholide; lactam N-11)
HRAS /KRAS (HRAS wild-type protein): C (A compound having a KD ratio of 0.1 or more and less than 3 is denoted as C)
NRAS /KRAS [1]: C (A compound having a KD ratio of 0.1 or more and less than 3 is denoted as C)

IC50 [2]: 6.8 nM
SMILES: C#CCN1C(=O)[C@@H]2CCN2C(=O)[C@H](C)N(C)C(=O)[C@H]([C@@H](C)CC)NC(=O)[C@H](CC(C)C)N(C)C(=O)C[C@@H](C(=O)N2CCOCC2)N(C)C(=O)[C@H](C2CCCC2)N(C)C(=O)C2(CCCC2)NC(=O)[C@@H]2CCCN2C(=O)[C@H](CCc2ccc(C(F)(F)F)c(Cl)c2)NC(=O)CN(C)C(=O)[C@@H]1Cc1ccc(C(F)(F)F)cc1 [PP0116] ([NMeL]I[NMeA][Aze][X29][Sar][hPhe(3-Cl-4-CF3)]P[Ac5c][NMeGly(cPent)][NMeD]-Morpholide; lactam N-11)
HRAS /KRAS (HRAS wild-type protein): C (A compound having a KD ratio of 0.1 or more and less than 3 is denoted as C)
NRAS /KRAS [1]: C (A compound having a KD ratio of 0.1 or more and less than 3 is denoted as C)

IC50 [2]: 9.2 nM
SMILES: CC[C@H](C)[C@@H]1NC(=O)[C@H](CC(C)C)N(C)C(=O)C[C@@H](C(=O)N2CCOCC2)N(C)C(=O)[C@H](C2CCCC2)N(C)C(=O)C2(CCCC2)NC(=O)[C@@H]2CCCN2C(=O)[C@H](CCc2ccc(C(F)(F)F)c(Cl)c2)NC(=O)CN(C)C(=O)[C@H](Cc2ccc(C(F)(F)F)cc2)N(CCC(F)(F)F)C(=O)[C@@H]2CCN2C(=O)[C@H](C)N(C)C1=O [PP0117] ([NMeL]I[NMeA][Aze][X25][Sar][hPhe(3-Cl-4-CF3)]P[Ac5c][NMeGly(cPent)][NMeD]-Morpholide; lactam N-11)
HRAS /KRAS (HRAS wild-type protein): B (a compound having 3 or more and less than 10 is denoted as B)
NRAS /KRAS [1]: B (a compound having 3 or more and less than 10 is denoted as B)

IC50 [2]: 6 nM
SMILES: CC[C@H](C)[C@@H]1NC(=O)[C@H](CC(C)C)N(C)C(=O)C[C@@H](C(=O)N2CCOCC2)N(C)C(=O)[C@H](C2CCCC2)N(C)C(=O)C2(CCCC2)NC(=O)[C@@H]2CCCN2C(=O)[C@H](CCc2ccc(C(F)(F)F)c(Cl)c2)NC(=O)CN(C)C(=O)[C@H](Cc2ccc(C(F)(F)F)cc2)N(CCOC)C(=O)[C@@H]2CCN2C(=O)[C@H](C)N(C)C1=O [PP0118] ([NMeL]I[NMeA][Aze][X34][Sar][hPhe(3-Cl-4-CF3)]P[Ac5c][NMeGly(cPent)][NMeD]-Morpholide; lactam N-11)
HRAS /KRAS (HRAS wild-type protein): C (A compound having a KD ratio of 0.1 or more and less than 3 is denoted as C)
NRAS /KRAS [1]: C (A compound having a KD ratio of 0.1 or more and less than 3 is denoted as C)

IC50 [2]: 1.6 nM
SMILES: CC[C@H](C)[C@@H]1NC(=O)[C@H](CC(C)C)N(C)C(=O)C[C@@H](C(=O)N2CCOCC2)N(C)C(=O)[C@H](C2CCCC2)N(C)C(=O)C2(CCCC2)NC(=O)[C@@H]2CCCN2C(=O)[C@H](CCc2ccc(C(F)(F)F)c(Cl)c2)NC(=O)CN(C)C(=O)[C@H](Cc2ccc(C(F)(F)F)cc2)N(CCCOC)C(=O)[C@@H]2CCN2C(=O)[C@H](C)N(C)C1=O [PP0119] ([NMeL]I[NMeA][Aze][X43][Sar][hPhe(3-Cl-4-CF3)]P[Ac5c][NMeGly(cPent)][NMeD]-Morpholide; lactam N-11)
HRAS /KRAS (HRAS wild-type protein): C (A compound having a KD ratio of 0.1 or more and less than 3 is denoted as C)
NRAS /KRAS [1]: C (A compound having a KD ratio of 0.1 or more and less than 3 is denoted as C)

IC50 [2]: 12 nM
SMILES: CC[C@H](C)[C@@H]1NC(=O)[C@H](CC(C)C)N(C)C(=O)C[C@@H](C(=O)N2CCOCC2)N(C)C(=O)[C@H](C2CCCC2)N(C)C(=O)C2(CCCC2)NC(=O)[C@@H]2CCCN2C(=O)[C@H](CCc2ccc(C(F)(F)F)c(Cl)c2)NC(=O)CN(C)C(=O)[C@H](Cc2ccc(C(F)(F)F)cc2)N(CC2CC2)C(=O)CN(C)C(=O)CN(C)C1=O [PP0122] ([NMeL]I[Sar][Sar][X33][Sar][hPhe(3-Cl-4-CF3)]P[Ac5c][NMeGly(cPent)][NMeD]-Morpholide; lactam N-11)
HRAS /KRAS (HRAS wild-type protein): C (A compound having a KD ratio of 0.1 or more and less than 3 is denoted as C)
NRAS /KRAS [1]: C (A compound having a KD ratio of 0.1 or more and less than 3 is denoted as C)

IC50 [2]: 8.8 nM
SMILES: C=CCCN1C(=O)CN(C)C(=O)CN(C)C(=O)[C@H]([C@@H](C)CC)NC(=O)[C@H](CC(C)C)N(C)C(=O)C[C@@H](C(=O)N2CCOCC2)N(C)C(=O)[C@H](C2CCCC2)N(C)C(=O)C2(CCCC2)NC(=O)[C@@H]2CCCN2C(=O)[C@H](CCc2ccc(C(F)(F)F)c(Cl)c2)NC(=O)CN(C)C(=O)[C@@H]1Cc1ccc(C(F)(F)F)cc1 [PP0129] ([NMeL]I[Sar][Sar][X22][Sar][hPhe(3-Cl-4-CF3)]P[Ac5c][NMeGly(cPent)][NMeD]-Morpholide; lactam N-11)
HRAS /KRAS (HRAS wild-type protein): C (A compound having a KD ratio of 0.1 or more and less than 3 is denoted as C)
NRAS /KRAS [1]: B (a compound having 3 or more and less than 10 is denoted as B)
